Data on nine molecules can be found in ChEMBL document CHEMBL4414544, “Dihydropyrimidine-2-thiones as Eg5 inhibitors and L-type calcium channel blockers: potential antitumour dual agents” (Medchemcomm, 2019).

Data set [1] relates to Aorta. Description: Vasodilating activity in Wistar rat aortic rings assessed as reduction in phenylephrine-induced contractions relative to control. It is filed as functional.
A further data set relates to HCT-116. Description: Antiproliferative activity against human HCT116 cells incubated for 72 hrs by MTT assay. It is filed as functional, cell-based. The note with it: HCT-116, 72 h. In general terms: Formazan colour is commonly taken as a measure of viable cells.
A further data set deals with MCF7. Description: Antiproliferative activity against human MCF7 cells incubated for 72 hrs by MTT assay. It is filed as functional, cell-based. The note with it: MCF7, 72 h.
A further data set relates to A549. Description: Antiproliferative activity against human A549 cells incubated for 72 hrs by MTT assay. The note with it: A549, 72 h. It is filed as functional, cell-based.
In data set [2] the test system is Aorta. The experiment in a line: Vasodilating activity in Wistar rat aortic rings assessed as reduction in phenylephrine-induced contractions. It is filed as functional, tissue-based.
Another data set relates to MM1.S. Description: Antiproliferative activity against human MM1S cells incubated for 72 hrs by MTT assay. It is filed as functional, cell-based.
The test system of data set [3] is Aorta. The experiment in a line: Vasodilating activity in Wistar rat aortic rings assessed as reduction in KCl-induced contractions. It is filed as functional, tissue-based.
Data set [4] deals with Aorta. The experiment in a line: Vasodilating activity in Wistar rat aortic rings assessed as reduction in KCl-induced contractions relative to control. It is filed as functional.
For data set [5], the target named is T1, Kinesin-like protein KIF11 (Homo sapiens) (UniProt P52732).
T1 sequence (whole entry): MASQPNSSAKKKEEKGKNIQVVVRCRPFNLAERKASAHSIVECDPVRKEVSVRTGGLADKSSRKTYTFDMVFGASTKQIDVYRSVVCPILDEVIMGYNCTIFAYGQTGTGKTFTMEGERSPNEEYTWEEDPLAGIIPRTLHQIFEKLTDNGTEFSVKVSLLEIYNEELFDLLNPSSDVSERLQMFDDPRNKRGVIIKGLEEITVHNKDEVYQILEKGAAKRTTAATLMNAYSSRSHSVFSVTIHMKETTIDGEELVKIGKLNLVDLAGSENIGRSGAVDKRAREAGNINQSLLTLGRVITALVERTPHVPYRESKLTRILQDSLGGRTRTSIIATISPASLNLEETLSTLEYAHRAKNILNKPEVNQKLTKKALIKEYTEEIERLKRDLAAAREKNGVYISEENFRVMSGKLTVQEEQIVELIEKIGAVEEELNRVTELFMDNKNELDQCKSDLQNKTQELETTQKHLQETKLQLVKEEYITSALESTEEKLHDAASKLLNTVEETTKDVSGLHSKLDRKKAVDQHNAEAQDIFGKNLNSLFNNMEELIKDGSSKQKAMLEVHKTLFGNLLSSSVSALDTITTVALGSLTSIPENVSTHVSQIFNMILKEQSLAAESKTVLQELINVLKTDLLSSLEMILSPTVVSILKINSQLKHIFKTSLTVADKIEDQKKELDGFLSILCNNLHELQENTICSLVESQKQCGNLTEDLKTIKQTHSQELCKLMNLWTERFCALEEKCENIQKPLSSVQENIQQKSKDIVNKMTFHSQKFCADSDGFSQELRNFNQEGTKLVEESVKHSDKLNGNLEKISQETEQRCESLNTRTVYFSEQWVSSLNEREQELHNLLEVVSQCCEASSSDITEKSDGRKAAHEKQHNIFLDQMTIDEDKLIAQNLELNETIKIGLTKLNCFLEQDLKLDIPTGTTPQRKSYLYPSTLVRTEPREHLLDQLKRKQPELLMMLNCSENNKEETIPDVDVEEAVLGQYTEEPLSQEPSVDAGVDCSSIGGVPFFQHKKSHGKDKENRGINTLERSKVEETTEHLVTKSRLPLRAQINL
The experiment in a line: Inhibition of Eg5 in human MCF7 cells assessed as increase in monopolar spindle formation at 100 uM incubated for 24 hrs by DAPI staining based confocal microscopic method. It is filed as cell-based.

Data set [6] relates to Aorta. The experiment in a line: Vasodilating activity in Wistar rat aortic rings assessed as reduction in phenylephrine-induced contractions in presence of Cacl2 in calcium free Krebs medium incubated for 1 hr relative to control. It is filed as functional. Also noted: scale not given: the % may be the effect or the level left.
A short description of data set [7]: Cytotoxicity against human MSC assessed as reduction in cell viability incubated for 72 hrs by MTT assay. It is filed as ADME.
The target of data set [8] is T2, Voltage-gated L-type calcium channel (Rattus norvegicus, UniProt P22002+Q02485+P27732). The experiment in a line: Inhibition of L-type calcium channel in Wistar rat aortic rings assessed as reduction in (-)-Bay K8644-induced contractions at 10^-4 M measured after 20 mins. It is filed as […]. The settings on record: 100 µM.
For data set [9], the target named is T2, Voltage-gated L-type calcium channel. Description: Inhibition of L-type calcium channel in Wistar rat aortic rings assessed as reduction in (-)-Bay K8644-induced contractions at 10^-5 M measured after 20 mins. It is filed as […]. The settings on record: 10 µM.

The source made the active and inactive calls. The rule behind the calls is not given here.

As to `CCOC(=O)C1=C(C)NC(=S)NC1c1ccc(O)c(OC)c1` (racemic), the Emax (usually the maximal effect, on the per cent scale that the assay sets) came to 78% with Aorta [1] and 78.3% with Aorta [4]. In addition, the IC50 (commonly the concentration that inhibits the measured activity by half) is over 100 µM in the data set on HCT-116; over 100 µM with MCF7; over 100 µM in the data set on A549; 29 µM with Aorta [2]; over 100 µM in the data set with MM1.S; 91 µM in the data set on Aorta [3]. Further, the inhibition result in data set [5] was “Active”.
In the case of `CCOC(=O)C1=C(C)NC(=S)NC1c1cccnc1` (racemic), the Emax in the data set with Aorta [1] was 80.9%; with Aorta [4], 78.4%. The IC50 was over 100 µM in the data set on HCT-116; over 100 µM in the data set with MCF7; over 100 µM in the data set on A549; 46 µM in the data set with Aorta [2]; over 100 µM in the data set with MM1.S; 52 µM in the data set on Aorta [3].
Turning to `CCOC(=O)C1=C(C)NC(=S)NC1c1ccc(O)c([N+](=O)[O-])c1` (racemic), the maximal effect (Emax) with Aorta [1] amounted to 62.4%; in the data set on Aorta [4], 57.1%. Further, the IC50 is over 100 µM in the data set on HCT-116; over 100 µM in the data set on MCF7; over 100 µM in the data set on A549; 26 µM in the data set on Aorta [2]; over 100 µM in the data set on MM1.S; 38 µM in the data set on Aorta [3].
As for `CCOC(=O)C1=C(C)NC(=S)NC1c1ccc2c(c1)OCCO2` (racemic), the Emax with Aorta [1] came out at 83.3%; in the data set on Aorta [4], 71.7%. Moreover, the IC50 with HCT-116 is over 100 µM; in the data set on MCF7 it was over 100 µM; in the data set on A549, over 100 µM; in the data set with Aorta [2] it was 5.6 µM; in the data set with MM1.S, over 100 µM; with Aorta [3], 12 µM. Besides, in data set [7], the IC50 is over 100 µM. Besides, in the data set on Aorta [6], the Activity was determined as 41.8%. For the same molecule, the “inhibition (INH)” value in data set [8] is listed as “Active”. Moreover, in data set [5], the inhibition result is “Active”.
In the case of `CCOC(=O)C1=C(C)NC(=S)NC1c1ccc2cn[nH]c2c1` (racemic), the Emax is 61.2% in the data set on Aorta [1] and 48.5% with Aorta [4]. The IC50 with HCT-116 was over 100 µM; in the data set on MCF7, over 100 µM; with A549, over 100 µM; with Aorta [2], 42 µM; with MM1.S, 63.1 µM; in the data set with Aorta [3], 36 µM. In addition, the half-inhibitory concentration (IC50) in data set [7] is over 100 µM.
Take `CCOC(=O)C1=C(C)NC(=S)NC1c1ccc(OC)c(O)c1` (racemic): the results for the Emax with Aorta [1] and with Aorta [4] were 88.4% and 77%, respectively. The IC50 was over 100 µM with HCT-116; over 100 µM in the data set with MCF7; over 100 µM in the data set on A549; 25 µM in the data set with Aorta [2]; over 100 µM with MM1.S; 37 µM in the data set on Aorta [3].
In the case of `CCOC(=O)C1=C(C)N=C(S)NC1c1cccc([N+](=O)[O-])c1` (racemic), the figures for the Emax with Aorta [1] and in the data set on Aorta [4] were 84.9% and 95.4%, respectively. The IC50 is 58 µM with HCT-116; 32.2 µM in the data set on MCF7; 44.9 µM with A549; 3.2 µM in the data set with Aorta [2]; 96.5 µM in the data set with MM1.S; 16 µM in the data set on Aorta [3]. For the same molecule, the IC50 in [7] was over 100 µM. Moreover, the Activity in the data set with Aorta [6] was determined as 18.1%. Moreover, the “inhibition (INH)” value in [9] and in data set [8] was “Active” throughout. For the same molecule, in data set [5], the inhibition entry is “Active”.
For the molecule `CCOC(=O)C1=C(C)NC(=S)NC1c1cccc(O)c1` (racemic) [MONASTROL], the figures for the Emax in the data set with Aorta [1] and in the data set with Aorta [4] were 95.2% and 89.5%, respectively. Further, the IC50 with HCT-116 is 9 µM; in the data set with MCF7, 73 µM; in the data set on A549, over 100 µM; in the data set on Aorta [2] it was 6.9 µM; with MM1.S, 8.7 µM; with Aorta [3], 1.2 µM. The Activity in the data set on Aorta [6] came out at 81.8%. Moreover, the “inhibition (INH)” value in [8] is “Active”.
`COC(=O)C1=C(C)NC(C)=C(C(=O)OC)C1c1ccccc1[N+](=O)[O-]` [NIFEDIPINE]: the Emax with Aorta [1] was found to be 75.1%; in the data set with Aorta [4], 98.7%. Moreover, the IC50 in the data set with HCT-116 was over 100 µM; in the data set on MCF7 it was over 100 µM; in the data set with A549, over 100 µM; in the data set with Aorta [2], 0.019 µM; in the data set with MM1.S, 57.9 µM; in the data set with Aorta [3] it was 0.0029 µM. Further, the IC50 in data set [7] was over 100 µM.
